Where a name gives a salt, the structure may show the parent alone.
Target: recombinant human PAI-1 (Homo sapiens, UniProt P05121)
Assay: Test Example 1: human PAI-1 inhibitory activity (tPA fluorogenic substrate, pH7.5 Tris buffer)
Assay type: biochemical
Set-up: purchased Molecular Innovations, Inc
Conditions: for Inhibition Rate of Human PAI-1 Activity (%): Tris buffer pH7.5
[1] = pH 7.5, read-out: Inhibition Rate of Human PAI-1 Activity (%)

recombinant human PAI-1, sequence (P05121 24-402): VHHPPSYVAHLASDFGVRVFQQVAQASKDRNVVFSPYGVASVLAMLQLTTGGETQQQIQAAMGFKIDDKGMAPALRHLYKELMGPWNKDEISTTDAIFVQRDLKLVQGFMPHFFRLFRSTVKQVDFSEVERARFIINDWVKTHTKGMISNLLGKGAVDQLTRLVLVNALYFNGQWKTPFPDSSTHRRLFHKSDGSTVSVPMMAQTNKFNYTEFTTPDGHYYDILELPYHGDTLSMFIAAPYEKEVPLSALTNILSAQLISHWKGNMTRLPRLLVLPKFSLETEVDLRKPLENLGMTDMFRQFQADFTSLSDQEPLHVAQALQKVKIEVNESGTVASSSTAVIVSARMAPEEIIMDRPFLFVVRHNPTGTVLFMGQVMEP
Protocol: In a 96-well multiplate (black), 1.5 μl of DMSO solution of the present application compound prepared to achieve 80-fold the test concentration (=the final concentration when fluorogenic substrate is added) was diluted with 52.5 μl of pH7.5 Tris buffer. […] Furthermore, 30 μl of 800 IU/ml two-chain tPA (Activity Standard; American diagnostics, inc.) prepared by Tris buffer was added, and the mixed solution was incubated for 15 minutes at room temperature. To this, 30 μl of 400 μM fluorogenic substrate (Pyr-Gly-Arg-MCA; Peptide Institute, Inc.) for tPA prepared by Tris buffer was added and reacted for 30 minutes at room temperature.
<Composition of pH7.5 Tris Buffer)

SMILES	Inhibition Rate of Human PAI-1 Activity (%) (compound 5 μM)	Inhibition Rate of Human PAI-1 Activity (%) (compound 10 μM)	inhibition at 5 µM [1] [%]	inhibition at 10 µM [1] [%]	Inhibition Rate of Human PAI-1 Activity (%) (compound 25 μM)
O=C(O)Cc1cc(-c2ccc(OC(F)(F)F)cc2)ccc1OCc1ccccc1 [Compound 1, [4-benzyloxy-4′-(trifluoromethoxy)biphenyl-3-yl]acetic acid]	18	31			
O=C(O)/C=C/c1cc(-c2ccc(OC(F)(F)F)cc2)ccc1OCc1ccccc1 [Compound 2, (E)-3-[4-benzyloxy-4′-(trifluoromethoxy)biphenyl-3-yl]propenoic acid]			35	31	
O=C(O)CCc1cc(-c2ccc(OC(F)(F)F)cc2)ccc1OCc1ccccc1 [Compound 3, 3-[4-benzyloxy-4′-(trifluoromethoxy)biphenyl-3-yl]propanoic acid]	35	68			
CC(C)(C)c1ccc(COc2ccc(-c3ccc(OC(F)(F)F)cc3)cc2/C=C/C(=O)O)cc1 [Compound 4, (E)-3-{4-[4-(tert-butyl)benzyloxy]-4′-(trifluoromethoxy)biphenyl-3-yl}propenoic acid]	84	78			
CC(C)(C)c1ccc(COc2ccc(-c3ccc(OC(F)(F)F)cc3)cc2NC(=O)C(=O)O)cc1 [Compound 6, N-{4-[4-(tert-butyl)benzyloxy]-4′-(trifluoromethoxy)biphenyl-3-yl}oxamic acid sodium salt]	83	94			
CC(C)(C)c1ccc(Oc2ccc(-c3ccc(OC(F)(F)F)cc3)cc2/C=C\C(=O)O)cc1 [Compound 12, (Z)-3-{4-[4-(tert-butyl)phenoxy]-4′-(trifluoromethoxy)biphenyl-3-yl}propenoic acid]	92	94			
O=C(O)CCc1cc(-c2ccc(OC(F)(F)F)cc2)ccc1Oc1ccc(C(=O)O)cc1 [Compound 15, 3-[4-(4-carboxyphenoxy)-4′-(trifluoromethoxy)biphenyl-3-yl]propanoic acid]		3			
CN(C(=O)C(=O)O)c1cc(-c2ccc(OC(F)(F)F)cc2)ccc1OCc1ccc(C(C)(C)C)cc1 [Compound 18, N-{4-[4-(tert-butyl)benzyloxy]-4′-(trifluoromethoxy)biphenyl-3-yl}-N-methyloxamic acid]	37	67			97
O=C(O)CCc1cc(-c2ccc(OC(F)(F)F)cc2)ccc1OCc1ccc(C(F)(F)F)cc1 [Compound 26, 3-{4′-(trifluoromethoxy)-4-[4-(trifluoromethyl)benzyloxy]biphenyl-3-yl}propanoic acid]		13			80
COc1ccccc1COc1ccc(-c2ccc(OC(F)(F)F)cc2)cc1CCC(=O)O [Compound 28, 3-[4-(2-methoxybenzyloxy)-4′-(trifluoromethoxy)biphenyl-3-yl]propanoic acid]		7			47
O=C(O)/C=C\c1cc(-c2ccc(OC(F)(F)F)cc2)ccc1OCc1ccccc1 [Compound 29, (Z)-3-[4-benzyloxy-4′-(trifluoromethoxy)biphenyl-3-yl]propenoic acid]		11			64
CC(C)(C)c1ccc(COc2ccc(-c3ccc(OC(F)(F)F)cc3)cc2/C=C\C(=O)O)cc1 [Compound 30, (Z)-3-{4-[4-(tert-butyl)benzyloxy]-4′-(trifluoromethoxy)biphenyl-3-yl}propenoic acid]	96	97			93
CC(C)(C)c1ccc(COc2ccc(-c3cccc(C(=O)O)c3)cc2CCC(=O)O)cc1 [Compound 31, 3-{4-[4-(tert-butyl)benzyloxy]-3′-carboxybiphenyl-3-yl}propanoic acid]		9			25
O=C(O)CCc1cc(-c2ccc(OC(F)(F)F)cc2)ccc1OCc1ccc(Cl)cc1Cl [Compound 32, 3-[4-(2,4-dichlorobenzyloxy)-4′-(trifluoromethoxy)biphenyl-3-yl]propanoic acid]	5	29			92
CCCCc1ccc(COc2ccc(-c3ccc(OC(F)(F)F)cc3)cc2CCC(=O)O)cc1 [Compound 35, 3-[4-(4-butylbenzyloxy)-4′-(trifluoromethoxy)biphenyl-3-yl]propanoic acid]					>99
CC(C)(C)c1ccc(COc2ccc(-c3ccccc3)cc2/C=C/C(=O)O)cc1 [Compound 36, (E)-3-{4-[4-(tert-butyl)benzyloxy]biphenyl-3-yl}propenoic acid]	21	49			89
CC(C)(C)c1ccc(COc2ccc(-c3ccccc3)cc2CCC(=O)O)cc1 [Compound 37, 3-{4-[4-(tert-butyl)benzyloxy]biphenyl-3-yl}propanoic acid]	22	47			97
CC(C)(C)c1ccc(COc2ccc(-c3ccc(F)cc3)cc2/C=C/C(=O)O)cc1 [Compound 38, (E)-3-{4-[4-(tert-butyl)benzyloxy]-4′-fluorobiphenyl-3-yl}propenoic acid]	23	53			96
CC(C)(C)c1ccc(COc2ccc(-c3ccc(F)cc3)cc2CCC(=O)O)cc1 [Compound 39, 3-{4-[4-(tert-butyl)benzyloxy]-4′-fluorobiphenyl-3-yl}propanoic acid]	24	53			99
CC(C)(C)c1ccc(COc2ccc(-c3ccc(C(F)(F)F)cc3)cc2/C=C/C(=O)O)cc1 [Compound 40, (E)-3-{4-[4-(tert-butyl)benzyloxy]-4′-(trifluoromethyl)biphenyl-3-yl}propenoic acid]	28	57			95
CC(C)(C)c1ccc(COc2ccc(-c3ccc(C(F)(F)F)cc3)cc2CCC(=O)O)cc1 [Compound 41, 3-{4-[4-(tert-butyl)benzyloxy]-4′-(trifluoromethyl)biphenyl-3-yl}propanoic acid]	23	60			99
COc1ccc(-c2ccc(OCc3ccc(C(C)(C)C)cc3)c(/C=C/C(=O)O)c2)cc1 [Compound 42, (E)-3-{4-[4-(tert-butyl)benzyloxy]-4′-methoxybiphenyl-3-yl}propenoic acid]	23	47			84
COc1ccc(-c2ccc(OCc3ccc(C(C)(C)C)cc3)c(CCC(=O)O)c2)cc1 [Compound 43, 3-{4-[4-(tert-butyl)benzyloxy]-4′-methoxybiphenyl-3-yl}propanoic acid]	14	34			93
CC(C)(C)c1ccc(COc2ccc(-c3ccc(C(C)(C)C)cc3)cc2/C=C/C(=O)O)cc1 [Compound 44, (E)-3-{4′-(tert-butyl)-4-[4-(tert-butyl)benzyloxy]biphenyl-3-yl}propenoic acid]	25	56			94
CC(C)(C)c1ccc(COc2ccc(-c3ccc(C(C)(C)C)cc3)cc2CCC(=O)O)cc1 [Compound 45, 3-{4′-(tert-butyl)-4-[4-(tert-butyl)benzyloxy]biphenyl-3-yl}propanoic acid]	22	66			>99
CCCCc1ccc(-c2ccc(OCc3ccc(C(C)(C)C)cc3)c(CCC(=O)O)c2)cc1 [Compound 48, 3-{4′-butyl-4-[4-(tert-butyl)benzyloxy]biphenyl-3-yl}propanoic acid]	29	66			94
CSc1ccc(-c2ccc(OCc3ccc(C(C)(C)C)cc3)c(/C=C/C(=O)O)c2)cc1 [Compound 49, (E)-3-{4-[4-(tert-butyl)benzyloxy]-4′-(methylsulfanyl)biphenyl-3-yl}propenoic acid]	16	25			21
CC(C)(C)c1ccc(-c2ccc(OCc3ccccc3)c(/C=C/C(=O)O)c2)cc1 [Compound 52, (E)-3-[4-benzyloxy-4′-(tert-butyl)biphenyl-3-yl]propenoic acid]	22	47			91

— patent US8044236B2, “Carboxilic acid derivatives” (Institute of Medicinal Molecular Design, Inc., priority 2006, dated 2011)
